Results on one compound are retold here after patent publication US5714496A, “Quinuclidine derivatives as squalene synthase inhibitors” (Zeneca Limited, priority 1992, dated 1998).

In assay [1] the test system is squalene synthase (rat liver microsomal protein). The experiment in a line: Inhibition of squalene synthase (squalene formation from tritiated farnesyl pyrophosphate). To be noted: at 2.5 μM; rat liver microsomes, 20 μM [3H]-farnesyl pyrophosphate, 15 min, 37° C. It counts as biochemical. The method, then:
(a) Inhibition of Squalene synthase
In this test, the ability of a compound to prevent the formation of squalene from a radioactive substrate (tritiated farnesyl pyrophosphate) is assessed.
The test compound is incubated at a concentration of 25 micromolar in 200 μl of a buffered solution containing potassium phosphate (50 mM), MgCl2 (4.95 mM), KF (9.9 mM), NADPH (0.9 mM) and rat liver microsomal protein (20 μg). Rat liver microsomes are prepared by the method described in published European Patent Application No. 324,421 and stored in liquid nitrogen prior to assay. Assay vials are kept at 37° C. throughout the incubation.
The reaction is started with the addition of the substrate (1-[^3 H]-farnesyl pyrophosphate), final concentration 20 μM, and stopped after 15 minutes reaction time with the addition of 50 μl of 4% KOH. The reaction products are separated from unreacted substrate after application to a C-18 octadecyl 1 ccBond column (Analytichem Int product No. 617101). An aqueous fraction is eluted with 250 μl of 0.1M KOH. Squalene is then eluted with 1.0 ml 10% ethylacetate in hexane and radioactivity determined. The difference in radioactivity in the presence and absence of the test compound is used to determine the level of inhibition. […] The IC50 can then be determined from a plot of percentage inhibition against concentration of test compound.

In assay [2] the test system is de novo hepatic cholesterol synthesis from 14C-acetate. The experiment in a line: Acute rat cholesterol synthesis assay. In kind it is in vivo. To be noted: plasma cholesterol specific radioactivity after ip [2-14C]-acetate given 1 hour after the compound. As to the method:
(b) Acute rat cholesterol synthesis assay.
This is an acute in vivo test in the rat to measure de novo hepatic cholesterol synthesis from exogenously administered ^14 C-acetate.
Female rats (35-55 g) are housed in reverse lighting conditions (red light from 0200 h-1400 h) for a period of about 2 weeks prior to test. Animals are allowed free access to chow and drinking water throughout this period. At test, animals should weigh 125-150 g.
Test compounds may be administered by oral gavage, dissolved or suspended in 0.5% polysorbate, or by ip or iv dosing. Control animals receive vehicle alone. After 1 hour the rats are injected ip with 25 μCi [2-^14 C]-acetate (NEN DUPONT, specific activity, 45-60 mCi/mmol NEC-085H, or AMERSHAM specific activity, 50-60 mCi/mmol CFA 14) in a volume of 0.25 ml saline (100 μCi/ml). After a further hour, rats are terminally anaesthetised with halothane and a blood sample obtained from the abdominal vena cava.
1 ml of plasma is lyophilised and then saponified in 2 ml ethanolic KOH (1 part 33% KOH, 9 parts ethanol) at 75° C. for 2 hours. After addition of an equal quantity of water, non-saponifiable lipids are extracted with two 5 ml volumes of hexane. The hexane extracts are evaporated to dryness and the residues dissolved in ethanol to determine cholesterol specific radioactivity. ED50 values can be determined in the standard way.

In the case of `OC1(C#Cc2ccc(-c3ccccn3)cc2)CN2CCC1CC2` (centres unmarked) [Example 2, 3-[2-(4-[2-pyridyl]phenyl)ethynyl]-3-hydroxyquinuclidine], in assay [1], the “inhibition of squalene synthase” value was “about 98%”. In assay [2], the median effective dose (ED50) stood at 8 mg/kg.
